Experimental data: patent publication US12252524B2, “GIP/GLP1 co-agonist compounds” (Eli Lilly and Company, priority 2018, dated 2025)
Numbered stars: 1 amine (or outer) side, 2 acyl side, 3 side chain; on linkers, the order of the positions; unused ones are H or OH. Square brackets hold non-standard residues; d marks the D form. Side chains are listed from the residue outwards. Peptide text beside a SMILES is read from it. * marks the point of attachment. C20 diacid = O=C(O)CCCCCCCCCCCCCCCCCCC(=O)*; C18 diacid = O=C(O)CCCCCCCCCCCCCCCCC(=O)*; γGlu = O=C(O)[C@H](CCC(=O)[*:2])N[*:1]; αMeY = C[C@](N)(Cc1ccc(O)cc1)C(=O)O; αMeL = CC(C)C[C@](C)(N)C(=O)O; Orn = NCCC[C@H](N)C(=O)O; AEEA = NCCOCCOCC(=O)O; Aib = CC(C)(N)C(=O)O

Columns and labels:
[1] = target: T1, human GLP-1R (Homo sapiens, UniProt P43220); experiment: GLP-1R CHO cell β-arrestin recruitment assay; assay type: cell-based; parameters: host or cells: CHO-K1 PathHunter cells, assay-ready frozen; details: for EC50: CHO-K1 cells, PathHunter β-arrestin-2 recruitment, 0.1% casein, read-out: hGLP1R B-Arrestin2 Rel EC50 uM (SEM, n); for hGLP1R B-Arrestin2 % Top: normalized to GLP-1 maximum control
Outline: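 PathHunter CHO-K1 cells with ProLink-tagged human GLP-1R and enzyme-acceptor-tagged β-arrestin-2 treated with serially diluted peptides in assay buffer containing 0.1% hydrolyzed casein, 90 min at 37 °C.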

[2] = target: human GLP-1 receptor (GLP-1R) (Homo sapiens, UniProt P43220); experiment: cAMP pharmacological functional assay in presence of casein, hGLP-1R; assay type: cell-based; details: HEK293 cells expressing hGLP-1R, 0.1% Casein, geometric mean; read-out: hGLP1R cAMP Rel EC50 nM (SEM, n)
[3] = target: T1, human GLP-1R; experiment: GLP-1R HEK293 cell membrane [35S]GTPγS binding assay; assay type: biochemical; parameters: expressed in transfected cells; host or cells: HEK293 cells expressing human GLP-1R; membranes; details: HEK293 cell membranes expressing human GLP-1R, [35S]GTPγS binding; read-out: hGLP1R GTPgS Rel EC50 nM (SEM, n)
Outline: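 Membranes from HEK293 cells expressing the receptor incubated with peptide and […] [35S]GTPγS in HEPES pH 7.4 buffer with NaCl, MgCl2, saponin and BSA, 30 min at room temperature. Gαs-bound label captured by anti-Gαs antibody/SPA beads and counted; EC50 from four-parameter logistic fit.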

[4] = target: T2, gastric inhibitory peptide receptor (GIPR) (Homo sapiens, UniProt P48546); experiment: cAMP pharmacological functional assay in presence of casein, hGIPR; assay type: cell-based; details: HEK293 cells expressing hGIPR, 0.1% Casein, geometric mean; read-out: hGIPR cAMP Rel EC50 nM (SEM, n)
T2 sequence (P48546 22-466): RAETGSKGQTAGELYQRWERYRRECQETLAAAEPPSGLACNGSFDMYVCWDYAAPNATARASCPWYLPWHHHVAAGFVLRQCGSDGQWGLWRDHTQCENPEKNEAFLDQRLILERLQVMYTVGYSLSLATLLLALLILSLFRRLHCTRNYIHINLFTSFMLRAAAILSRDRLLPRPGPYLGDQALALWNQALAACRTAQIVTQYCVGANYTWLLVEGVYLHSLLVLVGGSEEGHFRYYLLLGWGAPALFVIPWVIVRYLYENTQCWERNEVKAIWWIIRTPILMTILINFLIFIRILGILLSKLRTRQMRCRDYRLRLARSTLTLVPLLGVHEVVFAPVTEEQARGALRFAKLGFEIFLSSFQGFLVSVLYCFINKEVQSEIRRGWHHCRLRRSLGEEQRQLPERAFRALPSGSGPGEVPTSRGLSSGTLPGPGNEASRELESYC

T1 sequence (P43220 24-463): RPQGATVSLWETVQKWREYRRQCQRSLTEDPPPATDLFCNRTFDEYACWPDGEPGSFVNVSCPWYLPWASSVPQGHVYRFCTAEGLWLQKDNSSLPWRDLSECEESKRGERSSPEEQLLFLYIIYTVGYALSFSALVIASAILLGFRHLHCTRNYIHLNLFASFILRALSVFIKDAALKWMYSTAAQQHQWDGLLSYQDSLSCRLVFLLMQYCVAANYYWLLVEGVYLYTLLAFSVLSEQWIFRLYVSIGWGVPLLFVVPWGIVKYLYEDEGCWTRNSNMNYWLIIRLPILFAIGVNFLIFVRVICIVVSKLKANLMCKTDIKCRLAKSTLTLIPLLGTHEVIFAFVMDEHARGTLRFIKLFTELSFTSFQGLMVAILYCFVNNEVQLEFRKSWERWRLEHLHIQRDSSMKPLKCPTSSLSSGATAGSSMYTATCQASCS
human GLP-1 receptor (GLP-1R), sequence (P43220 24-463): as above

Row | Structure (SMILES) | EC50 [1] [µM] | hGLP1R B-Arrestin2 % Top [1] [%] | EC50 [2] [nM] | EC50 [3] [nM] | EC50 [4] [nM]
1 | CC[C@H](C)[C@H](NC(=O)[C@H](CC(C)C)NC(=O)[C@](C)(Cc1ccc(O)cc1)NC(=O)[C@H](CCC(=O)O)NC(=O)[C@@H](NC(=O)[C@H](Cc1ccccc1)NC(=O)[C@H](C)NC(=O)C(C)(C)NC(=O)[C@H](CCC(N)=O)NC(=O)[C@H](C)NC(=O)[C@H](CCCCNC(=O)COCCOCCNC(=O)CC[C@H](NC(=O)CCCCCCCCCCCCCCCCCCC(=O)O)C(=O)O)NC(=O)[C@H](CCCCN)NC(=O)[C@H](CC(=O)O)NC(=O)[C@H](CC(C)C)NC(=O)[C@](C)(CC(C)C)NC(=O)[C@@H](NC(=O)[C@H](CO)NC(=O)[C@H](Cc1ccc(O)cc1)NC(=O)[C@H](CC(=O)O)NC(=O)[C@H](CO)NC(=O)[C@@H](NC(=O)[C@H](Cc1ccccc1)NC(=O)[C@@H](NC(=O)CNC(=O)[C@H](CCC(=O)O)NC(=O)C(C)(C)NC(=O)[C@H](N)Cc1ccc(O)cc1)[C@@H](C)O)[C@@H](C)O)[C@@H](C)CC)[C@@H](C)CC)C(=O)N[C@@H](C)C(=O)NCC(=O)NCC(=O)N1CCC[C@H]1C(=O)N[C@@H](CO)C(=O)N[C@@H](CO)C(=O)NCC(=O)N[C@@H](C)C(=O)N1CCC[C@H]1C(=O)N1CCC[C@H]1C(=O)N1CCC[C@H]1C(=O)N[C@@H](CO)C(N)=O [Example 373] (H-[dY][Aib]EGTFTSDYSI[αMeL]LDKK([AEEA-γGlu-C20 diacid])AQ[Aib]AFIE[αMeY]LIAGGPSSGAPPPS-NH2) | 0.00954 | 22.9 | 0.436 | 0.336 | 0.185
2 | CC[C@H](C)[C@H](NC(=O)[C@H](CC(C)C)NC(=O)[C@](C)(Cc1ccc(O)cc1)NC(=O)[C@H](CCC(=O)O)NC(=O)[C@@H](NC(=O)[C@H](Cc1ccccc1)NC(=O)[C@H](CCC(=O)O)NC(=O)C(C)(C)NC(=O)[C@H](CCC(N)=O)NC(=O)[C@H](C)NC(=O)[C@H](CCCCNC(=O)COCCOCCNC(=O)COCCOCCNC(=O)CC[C@H](NC(=O)CCCCCCCCCCCCCCCCC(=O)O)C(=O)O)NC(=O)[C@H](CCCCN)NC(=O)[C@H](CC(=O)O)NC(=O)[C@H](CC(C)C)NC(=O)[C@](C)(CC(C)C)NC(=O)[C@@H](NC(=O)[C@H](CO)NC(=O)[C@H](Cc1ccc(O)cc1)NC(=O)[C@H](CC(=O)O)NC(=O)[C@H](CO)NC(=O)[C@@H](NC(=O)[C@H](Cc1ccccc1)NC(=O)[C@@H](NC(=O)CNC(=O)[C@H](CCC(=O)O)NC(=O)C(C)(C)NC(=O)[C@H](N)Cc1ccc(O)cc1)[C@@H](C)O)[C@@H](C)O)[C@@H](C)CC)[C@@H](C)CC)C(=O)N[C@@H](C)C(=O)NCC(=O)NCC(=O)N1CCC[C@H]1C(=O)N[C@@H](CO)C(=O)N[C@@H](CO)C(=O)NCC(=O)N[C@@H](C)C(=O)N1CCC[C@H]1C(=O)N1CCC[C@H]1C(=O)N1CCC[C@H]1C(=O)N[C@@H](CO)C(N)=O [Example 374] (H-[dY][Aib]EGTFTSDYSI[αMeL]LDKK([AEEA-AEEA-γGlu-C18 diacid])AQ[Aib]EFIE[αMeY]LIAGGPSSGAPPPS-NH2) | 0.0218 | 34.7 | 0.19 | 0.345 | 0.0468
3 | CC[C@H](C)[C@H](NC(=O)[C@H](CC(C)C)NC(=O)[C@](C)(Cc1ccc(O)cc1)NC(=O)[C@H](CCC(=O)O)NC(=O)[C@@H](NC(=O)[C@H](Cc1ccccc1)NC(=O)[C@H](CCC(=O)O)NC(=O)C(C)(C)NC(=O)[C@H](CCC(N)=O)NC(=O)[C@H](C)NC(=O)[C@H](CCCCNC(=O)COCCOCCNC(=O)COCCOCCNC(=O)CC[C@H](NC(=O)CCCCCCCCCCCCCCCCC(=O)O)C(=O)O)NC(=O)[C@H](CCCN)NC(=O)[C@H](CC(=O)O)NC(=O)[C@H](CC(C)C)NC(=O)[C@](C)(CC(C)C)NC(=O)[C@@H](NC(=O)[C@H](CO)NC(=O)[C@H](Cc1ccc(O)cc1)NC(=O)[C@H](CC(=O)O)NC(=O)[C@H](CO)NC(=O)[C@@H](NC(=O)[C@H](Cc1ccccc1)NC(=O)[C@@H](NC(=O)CNC(=O)[C@H](CCC(=O)O)NC(=O)C(C)(C)NC(=O)[C@H](N)Cc1ccc(O)cc1)[C@@H](C)O)[C@@H](C)O)[C@@H](C)CC)[C@@H](C)CC)C(=O)N[C@@H](C)C(=O)NCC(=O)NCC(=O)N1CCC[C@H]1C(=O)N[C@@H](CO)C(=O)N[C@@H](CO)C(=O)NCC(=O)N[C@@H](C)C(=O)N1CCC[C@H]1C(=O)N1CCC[C@H]1C(=O)N1CCC[C@H]1C(=O)N[C@@H](CO)C(N)=O [Example 375] (H-[dY][Aib]EGTFTSDYSI[αMeL]LD[Orn]K([AEEA-AEEA-γGlu-C18 diacid])AQ[Aib]EFIE[αMeY]LIAGGPSSGAPPPS-NH2) | 0.0114 | 24.2 | 0.152 | 0.419 | 0.0471
4 | CC[C@H](C)[C@H](NC(=O)[C@H](CC(C)C)NC(=O)[C@](C)(Cc1ccc(O)cc1)NC(=O)[C@H](CCC(=O)O)NC(=O)[C@@H](NC(=O)[C@H](Cc1ccccc1)NC(=O)[C@H](C)NC(=O)C(C)(C)NC(=O)[C@H](CCC(N)=O)NC(=O)[C@H](C)NC(=O)[C@H](CCCCNC(=O)COCCOCCNC(=O)COCCOCCNC(=O)CC[C@H](NC(=O)CCCCCCCCCCCCCCCCC(=O)O)C(=O)O)NC(=O)[C@H](CCCCN)NC(=O)[C@H](CC(=O)O)NC(=O)[C@H](CC(C)C)NC(=O)[C@](C)(CC(C)C)NC(=O)[C@@H](NC(=O)[C@H](CO)NC(=O)[C@H](Cc1ccc(O)cc1)NC(=O)[C@H](CC(=O)O)NC(=O)[C@H](CO)NC(=O)[C@@H](NC(=O)[C@H](Cc1ccccc1)NC(=O)[C@@H](NC(=O)CNC(=O)[C@H](CCC(=O)O)NC(=O)C(C)(C)NC(=O)[C@H](N)Cc1ccc(O)cc1)[C@@H](C)O)[C@@H](C)O)[C@@H](C)CC)[C@@H](C)CC)C(=O)N[C@@H](C)C(=O)NCC(=O)NCC(=O)N1CCC[C@H]1C(=O)N[C@@H](CO)C(=O)N[C@@H](CO)C(=O)NCC(=O)N[C@@H](C)C(=O)N1CCC[C@H]1C(=O)N1CCC[C@H]1C(=O)N1CCC[C@H]1C(=O)N[C@@H](CO)C(N)=O [Example 376] (H-[dY][Aib]EGTFTSDYSI[αMeL]LDKK([AEEA-AEEA-γGlu-C18 diacid])AQ[Aib]AFIE[αMeY]LIAGGPSSGAPPPS-NH2) | 0.0123 | 25.6 | 0.17 | 0.326 | 0.0723
5 | CC[C@H](C)[C@H](NC(=O)[C@H](CC(C)C)NC(=O)[C@](C)(Cc1ccc(O)cc1)NC(=O)[C@H](CCC(=O)O)NC(=O)[C@@H](NC(=O)[C@H](Cc1ccccc1)NC(=O)[C@H](C)NC(=O)C(C)(C)NC(=O)[C@H](CCC(N)=O)NC(=O)[C@H](C)NC(=O)[C@H](CCCCNC(=O)COCCOCCNC(=O)COCCOCCNC(=O)CC[C@H](NC(=O)CCCCCCCCCCCCCCCCC(=O)O)C(=O)O)NC(=O)[C@H](CCCN)NC(=O)[C@H](CC(=O)O)NC(=O)[C@H](CC(C)C)NC(=O)[C@](C)(CC(C)C)NC(=O)[C@@H](NC(=O)[C@H](CO)NC(=O)[C@H](Cc1ccc(O)cc1)NC(=O)[C@H](CC(=O)O)NC(=O)[C@H](CO)NC(=O)[C@@H](NC(=O)[C@H](Cc1ccccc1)NC(=O)[C@@H](NC(=O)CNC(=O)[C@H](CCC(=O)O)NC(=O)C(C)(C)NC(=O)[C@H](N)Cc1ccc(O)cc1)[C@@H](C)O)[C@@H](C)O)[C@@H](C)CC)[C@@H](C)CC)C(=O)N[C@@H](C)C(=O)NCC(=O)NCC(=O)N1CCC[C@H]1C(=O)N[C@@H](CO)C(=O)N[C@@H](CO)C(=O)NCC(=O)N[C@@H](C)C(=O)N1CCC[C@H]1C(=O)N1CCC[C@H]1C(=O)N1CCC[C@H]1C(=O)N[C@@H](CO)C(N)=O [Example 377] (H-[dY][Aib]EGTFTSDYSI[αMeL]LD[Orn]K([AEEA-AEEA-γGlu-C18 diacid])AQ[Aib]AFIE[αMeY]LIAGGPSSGAPPPS-NH2) | 0.00532 | 16.7 | 0.136 | 0.356 | 0.0544
